# Patent publication US20180265877A1, “METHODS AND COMPOSITIONS FOR AGROBACTERIUM COMPRISING NEGATIVE SELECTION MARKERS” (PIONEER HI-BRED INTERNATIONAL, INC., priority 2015, published 2018)
# How the values were obtained:
# Assay type in all cases: cell-based
# [1] = tested on: Agrobacterium strain AGL0; experiment: Agrobacterium growth assay on solid minimal medium, wild-type AGL0; parameters: key to Growth score: a score of zero (0) indicating no visible colonies; 1+ indicating a few isolated colonies; ++: progressing up to 5+; +++: progressing up to 5+; ++++: progressing up to 5+; +++++: 5+ indicating a confluent lawn
# Method: (§1) For all Agrobacterium growth-assay experiments, standard Agrobacterium minimal medium was used, with no additives as a control treatment, or with the addition of either 5-fluorocytosine, 5-fluorouracil or thymidine. To begin these tests, experiments were conducted to test for growth of wild-type and mutant AGL0 Agrobacterium strains on either 5-fluorocytosine (5-fluorocytosine, the non-toxic substrate of the CODA protein) or 5-fluorouracil (5-fluorouracil, the toxic product).
# (§2) In Table 4, results of a more detailed kill-curve for strain AGL0 on 5-fluorouracil are shown. […] Finally, a third experiment was performed using either wild-type AGL0 or an auxotrophic mutant of AGL0 in which the gene encoding thymidylate synthase was inactivated, rendering the bacteria incapable of growth in the absence of thymidine (this strain was referred to as AGL0 THY−). The two strains were plated at high densities (10^6 or 10^8 CFU/plate) onto medium containing 0, 1 or 3 μg/ml 5-fluorouracil, with each of these three treatments containing either 0 or 50 mg/l thymidine.
# The newly developed AGL0 mutant strain (THY−/codA+, see Example 1) was plated on varying concentrations of 5-fluorocytosine to assess growth. This strain, along with wild-type AGL0 were cultured overnight in liquid medium, diluted to 10^7 CFU and then 100 μl of suspension was plated onto minimal Agro medium+/− thymidine, with either 0, 100, 200 or 300 μg/ml 5-fluorocytosine, for a total of 8 treatments. After 72 hours at 28° C., the plates were scored for Agrobacterium growth.
# [2] = tested on: Agrobacterium strain LBA4404; experiment: Agrobacterium growth assay on solid minimal medium, LBA4404; parameters: key: a score of zero (0) indicating no visible colonies; 1+ indicating a few isolated colonies; ++: progressing up to 5+; +++: progressing up to 5+; ++++: progressing up to 5+; +++++: 5+ indicating a confluent lawn; settings: LBA4404 plated at 1 × 10^4, after 3 days
# Method: as §1
# [3] = tested on: Agrobacterium strain EHA101; experiment: Agrobacterium growth assay on solid minimal medium, EHA101; parameters: key: a score of zero (0) indicating no visible colonies; 1+ indicating a few isolated colonies; ++: progressing up to 5+; +++: progressing up to 5+; ++++: progressing up to 5+; +++++: 5+ indicating a confluent lawn; settings: EHA101 plated at 1 x 10^4, after 3 days
# Method: as §1
# [4] = tested on: Agrobacterium strain EHA105; experiment: Agrobacterium growth assay on solid minimal medium, EHA105; parameters: key: a score of zero (0) indicating no visible colonies; 1+ indicating a few isolated colonies; ++: progressing up to 5+; +++: progressing up to 5+; ++++: progressing up to 5+; +++++: 5+ indicating a confluent lawn; settings: EHA105 plated at 1 × 10^4, after 3 days
# Method: as §1
# AGL0 THY− = experiment: Agrobacterium growth assay on solid medium, thymidine auxotroph AGL0 THY−; settings: for Growth score: after 24 hours
# Method: as §2
# [5] = tested on: four Agrobacterium strains (AGL0, LBA4404, EHA101 and EHA105); experiment: Agrobacterium growth assay, the four strains
# Method: as §1
smiles,measurement,setting,value
O=c1[nH]cc(F)c(=O)[nH]1 [5-fluorouracil],Growth,"[1]; 0.3 μg/ml 5-fluorouracil, plating densities 1×10^3 to 1×10^8 CFU/plate",only a few colonies grew
same,Growth,"[1]; 1 μg/ml 5-fluorouracil or higher, all plating densities",completely inhibited
same,Growth score,"[1]; AGL0 1 x 10^6, 5-fluorouracil 1 μg/ml, no thymidine, after 24 hours",0
same,Growth score,"[1]; AGL0 1 x 10^6, 5-fluorouracil 1 μg/ml, thy 50 mg/l, after 24 hours",0
same,Growth score,"[1]; AGL0 1 x 10^6, 5-fluorouracil 3 μg/ml, no thymidine, after 24 hours",0
same,Growth score,"[1]; AGL0 1 x 10^6, 5-fluorouracil 3 μg/ml, thy 50 mg/l, after 24 hours",0
same,Growth score,"[1]; AGL0 1 x 10^8, 5-fluorouracil 1 μg/ml, no thymidine, after 24 hours",0
same,Growth score,"[1]; AGL0 1 x 10^8, 5-fluorouracil 1 μg/ml, thy 50 mg/l, after 24 hours",0
same,Growth score,"[1]; AGL0 1 x 10^8, 5-fluorouracil 3 μg/ml, no thymidine, after 24 hours",0
same,Growth score,"[1]; AGL0 1 x 10^8, 5-fluorouracil 3 μg/ml, thy 50 mg/l, after 24 hours",0
same,Growth score,"[1]; AGL0 1 × 10^3 CFU, 0.1 μg/ml 5-fluorouracil, 72 hours",++
same,Growth score,"[1]; AGL0 1 × 10^3 CFU, 0.3 μg/ml 5-fluorouracil, 72 hours",+
same,Growth score,"[1]; AGL0 1 × 10^3 CFU, 1 μg/ml 5-fluorouracil, 72 hours",0
same,Growth score,"[1]; AGL0 1 × 10^3 CFU, 3 μg/ml 5-fluorouracil, 72 hours",0
same,Growth score,"[1]; AGL0 1 × 10^4 CFU, 0.1 μg/ml 5-fluorouracil, 72 hours",++
same,Growth score,"[1]; AGL0 1 × 10^4 CFU, 0.3 μg/ml 5-fluorouracil, 72 hours",+
same,Growth score,"[1]; AGL0 1 × 10^4 CFU, 1 μg/ml 5-fluorouracil, 72 hours",0
same,Growth score,"[1]; AGL0 1 × 10^4 CFU, 3 μg/ml 5-fluorouracil, 72 hours",0
same,Growth score,"[1]; AGL0 1 × 10^5 CFU, 0.1 μg/ml 5-fluorouracil, 72 hours",+++
same,Growth score,"[1]; AGL0 1 × 10^5 CFU, 0.3 μg/ml 5-fluorouracil, 72 hours",+
same,Growth score,"[1]; AGL0 1 × 10^5 CFU, 1 μg/ml 5-fluorouracil, 72 hours",0
same,Growth score,"[1]; AGL0 1 × 10^5 CFU, 3 μg/ml 5-fluorouracil, 72 hours",0
same,Growth score,"[1]; AGL0 1 × 10^6 CFU, 0.1 μg/ml 5-fluorouracil, 72 hours",++
same,Growth score,"[1]; AGL0 1 × 10^6 CFU, 0.3 μg/ml 5-fluorouracil, 72 hours",+
same,Growth score,"[1]; AGL0 1 × 10^6 CFU, 1 μg/ml 5-fluorouracil, 72 hours",0
same,Growth score,"[1]; AGL0 1 × 10^6 CFU, 3 μg/ml 5-fluorouracil, 72 hours",0
same,Growth score,"[1]; AGL0 1 × 10^7 CFU, 0.1 μg/ml 5-fluorouracil, 72 hours",++
same,Growth score,"[1]; AGL0 1 × 10^7 CFU, 0.3 μg/ml 5-fluorouracil, 72 hours",+
same,Growth score,"[1]; AGL0 1 × 10^7 CFU, 1 μg/ml 5-fluorouracil, 72 hours",0
same,Growth score,"[1]; AGL0 1 × 10^7 CFU, 3 μg/ml 5-fluorouracil, 72 hours",0
same,Growth score,"[1]; AGL0 1 × 10^8 CFU, 0.1 μg/ml 5-fluorouracil, 72 hours",+++
same,Growth score,"[1]; AGL0 1 × 10^8 CFU, 0.3 μg/ml 5-fluorouracil, 72 hours",+
same,Growth score,"[1]; AGL0 1 × 10^8 CFU, 1 μg/ml 5-fluorouracil, 72 hours",0
same,Growth score,"[1]; AGL0 1 × 10^8 CFU, 3 μg/ml 5-fluorouracil, 72 hours",0
same,Growth score,"[1]; AGL0 plated at 1 × 10^4, 0.1 μg/ml 5-fluorouracil, after 3 days",+
same,Growth score,"[1]; AGL0 plated at 1 × 10^4, 1.0 μg/ml 5-fluorouracil, after 3 days",0
same,Growth score,"[1]; AGL0 plated at 1 × 10^4, 3.0 μg/ml 5-fluorouracil, after 3 days",0
same,Growth score,"[1]; AGL0 plated at 4 × 10^7, 0.1 μg/ml 5-fluorouracil, after 3 days",++++
same,Growth score,"[1]; AGL0 plated at 4 × 10^7, 1.0 μg/ml 5-fluorouracil, after 3 days",++++
same,Growth score,"[1]; AGL0 plated at 4 × 10^7, 3.0 μg/ml 5-fluorouracil, after 3 days",0
same,Growth,"[1]; wild-type AGL0, 1 and 3 μg/ml 5-fluorouracil, 0 or 50 mg/l thymidine, 24 hours",no growth was observed
same,Growth score,[2]; 0.1 μg/ml 5-fluorouracil,+++
same,Growth score,[2]; 1.0 μg/ml 5-fluorouracil,0
same,Growth score,[2]; 3.0 μg/ml 5-fluorouracil,0
same,Growth score,[3]; 0.1 μg/ml 5-fluorouracil,++
same,Growth score,[3]; 1.0 μg/ml 5-fluorouracil,0
same,Growth score,[3]; 3.0 μg/ml 5-fluorouracil,0
same,Growth score,[4]; 0.1 μg/ml 5-fluorouracil,+
same,Growth score,[4]; 1.0 μg/ml 5-fluorouracil,0
same,Growth score,[4]; 3.0 μg/ml 5-fluorouracil,0
same,Growth score,"AGL0 THY−; AGL0 THY- 1 x 10^6, 5-fluorouracil 1 μg/ml, no thymidine",0
same,Growth score,"AGL0 THY−; AGL0 THY- 1 x 10^6, 5-fluorouracil 1 μg/ml, thy 50 mg/l",0
same,Growth score,"AGL0 THY−; AGL0 THY- 1 x 10^6, 5-fluorouracil 3 μg/ml, no thymidine",0
same,Growth score,"AGL0 THY−; AGL0 THY- 1 x 10^6, 5-fluorouracil 3 μg/ml, thy 50 mg/l",0
same,Growth score,"AGL0 THY−; AGL0 THY- 1 x 10^8, 5-fluorouracil 1 μg/ml, no thymidine",0
same,Growth score,"AGL0 THY−; AGL0 THY- 1 x 10^8, 5-fluorouracil 1 μg/ml, thy 50 mg/l",0
same,Growth score,"AGL0 THY−; AGL0 THY- 1 x 10^8, 5-fluorouracil 3 μg/ml, no thymidine",0
same,Growth score,"AGL0 THY−; AGL0 THY- 1 x 10^8, 5-fluorouracil 3 μg/ml, thy 50 mg/l",0
same,Growth,"AGL0 THY−; THY− AGL0, 1 and 3 μg/ml 5-fluorouracil, 0 or 50 mg/l thymidine, 24 hours",no growth was observed
same,Growth,"[5]; 1 μg/ml 5-fluorouracil, all four strains plated at the lower density (1×10^4 CFU)",no growth
same,Growth,"[5]; 3 μg/ml 5-fluorouracil, any strain",no growth was observed
same,Totally inhibiting 5-fluorouracil concentration (3 μg/ml) relative to highest 5-fluorocytosine concentration tested (1000 μg/ml),[5]; fold lower,over 300 fold
